pIC50: −log10 of the molar value.
Target: IRAK4 (Homo sapiens (Human), UniProt Q9NWZ3)
Experiment: IRAK-4 AlphaScreen biochemical kinase assay
Conditions: 1 nM IRAK4, 1 mM ATP, 3.5 h at RT
In short: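 AlphaScreen read-out: streptavidin beads bind the biotinylated peptide and protein A beads bind the anti-phosphothreonine antibody, so energy transfer reports phosphorylation of the peptide. The kinase is human IRAK-4.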

Sequence of IRAK4 (Q9NWZ3 whole entry, species assumed): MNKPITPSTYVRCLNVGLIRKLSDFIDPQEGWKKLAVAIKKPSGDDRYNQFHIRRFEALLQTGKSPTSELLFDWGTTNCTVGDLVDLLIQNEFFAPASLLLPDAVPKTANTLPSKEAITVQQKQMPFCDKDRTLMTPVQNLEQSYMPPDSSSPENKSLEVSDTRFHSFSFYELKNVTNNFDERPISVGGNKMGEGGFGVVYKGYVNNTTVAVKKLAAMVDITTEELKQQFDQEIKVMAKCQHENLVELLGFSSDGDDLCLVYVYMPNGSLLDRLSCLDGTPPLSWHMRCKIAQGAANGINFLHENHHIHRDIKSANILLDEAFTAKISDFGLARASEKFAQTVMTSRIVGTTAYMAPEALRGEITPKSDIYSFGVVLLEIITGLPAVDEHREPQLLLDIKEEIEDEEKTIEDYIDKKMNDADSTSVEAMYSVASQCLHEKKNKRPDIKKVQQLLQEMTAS

SMILES	pIC50
Nc1cncc(-c2ccc3cnn(-c4cccc(C(=O)NCCCO)n4)c3c2)c1 [Example 66, 6-(6-(5-aminopyridin-3-yl)-1H-indazol-1-yl)-N-(3-hydroxypropyl)picolinamide]	6.00 to 7.00
Cc1cccc(-n2ncc3ccc(-c4cccc(N)n4)cc32)n1 [Example 1, 6-(1-(6-methylpyridin-2-yl)-1H-indazol-6-yl)pyridin-2-amine]	6.00 to 7.00
CCCC(N)c1cccc(-c2ccc3cnn(-c4cccc(C)n4)c3c2)n1 (stereo not drawn) [Example 132, 1-(6-(1-(6-methylpyridin-2-yl)-1H-indazol-6-yl)pyridin-2-yl)butan-1-amine]	> 7.00
CC(N)c1cccc(-c2ccc3cnn(-c4cccc(C(N)=O)n4)c3c2)n1 (stereo not drawn) [Example 126, 6-(6-(6-(1-aminoethyl)pyridin-2-yl)-1H-indazol-1-yl)picolinamide]	> 7.00
Cc1cccc(-c2ncc3ccc(-c4cncc(N)c4)cn23)n1 [Example 41, 5-(3-(6-methylpyridin-2-yl)imidazo[1,5-a]pyridin-6-yl)pyridin-3-amine]	> 7.00
Cc1cccc(-n2ncc3ccc(-c4cccc(C(N)CO)n4)cc32)n1 (stereo not drawn) [Example 271, 2-amino-2-(6-(1-(6-methylpyridin-2-yl)-1H-indazol-6-yl)pyridin-2-yl)ethanol]	> 7.00
CCC[C@H](N)c1cccc(-c2ccc3cnn(-c4ccnc(CO)c4)c3c2)n1 [Example 400, (S)-(4-(6-(6-(1-aminobutyl)pyridin-2-yl)-1H-indazol-1-yl)pyridin-2-yl)methanol]	6.00 to 7.00
Cc1cccc(-n2ncc3ccc(-c4cccc(C(C)N(C)C)n4)cc32)n1 (stereo not drawn) [Example 220, N,N-dimethyl-1-(6-(1-(6-methylpyridin-2-yl)-1H-indazol-6-yl)pyridin-2-yl)ethanamine]	6.00 to 7.00
CC(C)(N)c1cccc(-c2ccc3cnn(-c4cccc(C(F)(F)F)n4)c3c2)n1 [Example 129, 2-(6-(1-(6-(trifluoromethyl)pyridin-2-yl)-1H-indazol-6-yl)pyridin-2-yl)propan-2-amine]	> 7.00
Cc1cccc(-n2ncc3ccc(-c4cccc(C5(N)CC5)n4)cc32)n1 [Example 262, 1-(6-(1-(6-methylpyridin-2-yl)-1H-indazol-6-yl)pyridin-2-yl)cyclopropanamine]	6.00 to 7.00
CC(=O)c1cccc(-c2cc(N(C)C(=O)OC(C)(C)C)c3cnn(-c4cccc(C)n4)c3c2)n1 [Example 225, tert-butyl (6-(6-acetylpyridin-2-yl)-1-(6-methylpyridin-2-yl)-1H-indazol-4-yl)(methyl)carbamate]	5.00 to 6.00
Cc1ccnc(-n2ncc3ccc(-c4cccc(C(C)N)n4)cc32)n1 (stereo not drawn) [Example 296, 1-(6-(1-(4-methylpyrimidin-2-yl)-1H-indazol-6-yl)pyridin-2-yl)ethanamine]	5.00 to 6.00
Cc1cc(C)nc(-n2ncc3ccc(-c4cccc(C(C)N)n4)cc32)c1 (stereo not drawn) [Example 315, 1-(6-(1-(4,6-dimethylpyridin-2-yl)-1H-indazol-6-yl)pyridin-2-yl)ethanamine]	5.00 to 6.00
Cc1cccc(-n2ncc3ccc(-c4cc(N)ccn4)cc32)n1 [Example 3, 2-(1-(6-methylpyridin-2-yl)-1H-indazol-6-yl)pyridin-4-amine]	5.00 to 6.00
CCC[C@@H](N)c1ccnc(-c2cc(OCCOC)c3cnn(-c4cccc(CO)n4)c3c2)n1 [Example 596, (R)-(6-(6-(4-(1-aminobutyl)pyrimidin-2-yl)-4-(2-methoxyethoxy)-1H-indazol-1-yl)pyridin-2-yl)methanol]	> 7.00
Cc1cccc(-n2ncc3c(C(F)(F)F)cc(-c4cccc(C(C)N)n4)cc32)n1 (stereo not drawn) [Example 111, 1-(6-(1-(6-methylpyridin-2-yl)-4-(trifluoromethyl)-1H-indazol-6-yl)pyridin-2-yl)ethanamine]	6.00 to 7.00
Cc1cccc(-n2ncc3ccc(-c4cc(CN)ccn4)cc32)n1 [Example 5, (2-(1-(6-methylpyridin-2-yl)-1H-indazol-6-yl)pyridin-4-yl)methanamine]	5.00 to 6.00
Cc1cccc(-n2ncc3ccc(-c4ccc(F)c(C(C)N)n4)cc32)n1 (stereo not drawn) [Example 242, 1-(3-fluoro-6-(1-(6-methylpyridin-2-yl)-1H-indazol-6-yl)pyridin-2-yl)ethanamine]	> 7.00
Cc1cccc(-n2ncc3ccc(-c4cccc(N)c4)cc32)n1 [Example 8, 3-(1-(6-methylpyridin-2-yl)-1H-indazol-6-yl)aniline]	6.00 to 7.00
Cc1cccc(-n2ncc3ccc(-c4cccc(CCC(F)(F)F)n4)cc32)n1 [Example 313, 1-(6-methylpyridin-2-yl)-6-(6-(3,3,3-trifluoropropyl)pyridin-2-yl)-1H-indazole]	5.00 to 6.00
CC1(N)CCCc2ccc(-c3ccc4cnn(-c5cccc(CO)n5)c4c3)nc21 (stereo not drawn) [Example 420, (6-(6-(8-amino-8-methyl-5,6,7,8-tetrahydroquinolin-2-yl)-1H-indazol-1-yl)pyridin-2-yl)methanol]	> 7.00

SMILES	pIC50
Cc1cccc(-n2ncc3ccc(-c4cccc(CN(C)C)n4)cc32)n1 [Example 14, N,N-dimethyl-1-(6-(1-(6-methylpyridin-2-yl)-1H-indazol-6-yl)pyridin-2-yl)methanamine]	6.00 to 7.00
C[C@H](N)c1cccc(-c2cc(OCCCO)c3cnn(-c4cccc(CO)n4)c3c2)n1 [Example 459, (S)-3-((6-(6-(1-aminoethyl)pyridin-2-yl)-1-(6-(hydroxymethyl)pyridin-2-yl)-1H-indazol-4-yl)oxy)propan-1-ol]	> 7.00
CNCc1cccc(-c2ccc3cnn(-c4cccc(C)n4)c3c2)c1 [Example 18, N-methyl-1-(3-(1-(6-methylpyridin-2-yl)-1H-indazol-6-yl)phenyl)methanamine]	> 7.00
CCC[C@@H](c1cccc(-c2ccc3cnn(-c4cccc(CO)n4)c3c2)n1)N(C)C [Example 566, (S)-(6-(6-(6-(1-(dimethylamino)butyl)pyridin-2-yl)-1H-indazol-1-yl)pyridin-2-yl)methanol]	6.00 to 7.00
COCCOc1cc(-c2cccc([C@@H](N)CC(C)(F)F)n2)cc2c1cnn2-c1cccc(CO)n1 [Example 455, (S)-(6-(6-(6-(1-amino-3,3-difluorobutyl)pyridin-2-yl)-4-(2-methoxyethoxy)-1H-indazol-1-yl)pyridin-2-yl)methanol]	> 7.00
CC(N)c1cccc(-c2cc(CO)c3cnn(-c4cccc(C(F)(F)F)n4)c3c2)n1 (stereo not drawn) [Example 57, (6-(6-(1-aminoethyl)pyridin-2-yl)-1-(6-(trifluoromethyl)pyridin-2-yl)-1H-indazol-4-yl)methanol]	> 7.00
Cc1ccc(-n2ncc3ccc(-c4cccc(N)c4)cc32)nc1C [Example 24, 3-(1-(5,6-dimethylpyridin-2-yl)-1H-indazol-6-yl)aniline]	5.00 to 6.00
COc1cc(-c2cccc(C(C)N)n2)cc2c1cnn2-c1cccc(C)n1 (stereo not drawn) [Example 246, 1-(6-(4-methoxy-1-(6-methylpyridin-2-yl)-1H-indazol-6-yl)pyridin-2-yl)ethanamine]	> 7.00
C/C(=N\O)c1cccc(-c2cc(N(C)C)c3cnn(-c4cccc(C)n4)c3c2)n1 [Example 234, (E)-1-(6-(4-(dimethylamino)-1-(6-methylpyridin-2-yl)-1H-indazol-6-yl)pyridin-2-yl)ethanone oxime]	6.00 to 7.00
Cc1cccc(-n2ncc3ccc(-c4cccc(C(N)C5CC5)n4)cc32)n1 (stereo not drawn) [Example 131, cyclopropyl(6-(1-(6-methylpyridin-2-yl)-1H-indazol-6-yl)pyridin-2-yl)methanamine]	> 7.00
COC(=O)C(N)c1cccc(-c2ccc3cnn(-c4cccc(C)n4)c3c2)n1 (stereo not drawn) [Example 272, methyl 2-amino-2-(6-(1-(6-methylpyridin-2-yl)-1H-indazol-6-yl)pyridin-2-yl)acetate]	6.00 to 7.00
CCC[C@H](N)c1nccc(-c2ccc3cnn(-c4cccc(CO)n4)c3c2)n1 [Example 405, (S)-(6-(6-(2-(1-aminobutyl)pyrimidin-4-yl)-1H-indazol-1-yl)pyridin-2-yl)methanol]	> 7.00
CCC[C@@H](N)c1cccc(-c2ccc3cnn(-c4cccc(CO)n4)c3c2)n1 [Example 146, (R)-(6-(6-(6-(1-aminobutyl)pyridin-2-yl)-1H-indazol-1-yl)pyridin-2-yl)methanol]	> 7.00
Cc1cccc(-n2ncc3ccc(-c4cc(N)cc(CN)n4)cc32)n1 [Example 231, 2-(aminomethyl)-6-(1-(6-methylpyridin-2-yl)-1H-indazol-6-yl)pyridin-4-amine]	> 7.00
Cc1cccc(-n2ncc3ccc(-c4cc(C(F)(F)F)cc(C(C)N)n4)cc32)n1 (stereo not drawn) [Example 125, 1-(6-(1-(6-methylpyridin-2-yl)-1H-indazol-6-yl)-4-(trifluoromethyl)pyridin-2-yl)ethanamine]	6.00 to 7.00
COC(=O)CC(N)c1cccc(-c2ccc3cnn(-c4cccc(C)n4)c3c2)n1 (stereo not drawn) [Example 261, methyl 3-amino-3-(6-(1-(6-methylpyridin-2-yl)-1H-indazol-6-yl)pyridin-2-yl)propanoate]	> 7.00
Cc1cccc(-n2ncc3ccc(-c4ccc(Cl)c(C(C)N)n4)cc32)n1 (stereo not drawn) [Example 266, 1-(3-chloro-6-(1-(6-methylpyridin-2-yl)-1H-indazol-6-yl)pyridin-2-yl)ethanamine]	6.00 to 7.00
NCCNC(=O)c1cccc(-n2ncc3ccc(-c4cncc(N)c4)cc32)n1 [Example 72, N-(2-aminoethyl)-6-(6-(5-aminopyridin-3-yl)-1H-indazol-1-yl)picolinamide]	> 7.00
Cc1cccc(-n2ncc3ccc(-c4cccc5c4CCNC5)cc32)n1 [Example 15, 5-(1-(6-methylpyridin-2-yl)-1H-indazol-6-yl)-1,2,3,4-tetrahydroisoquinoline]	5.00 to 6.00
CCC[C@H](N)c1cccc(-c2ccc3cnn(-c4cccc(C)n4)c3c2)n1 [Example 265, (S)-1-(6-(1-(6-methylpyridin-2-yl)-1H-indazol-6-yl)pyridin-2-yl)butan-1-amine]	> 7.00
N#Cc1cccc(-n2ncc3ccc(-c4cccc(N)c4)cc32)c1 [Example 20, 3-(6-(3-aminophenyl)-1H-indazol-1-yl)benzonitrile]	6.00 to 7.00

From patent US10246456B2, “IRAK4 inhibiting agents” (BIOGEN MA INC., priority 2014, dated 2019)
